Where “and” joins values, the source holds several entries; their conditions need not be identical. Equal values may be shown once. Read-outs that look alike come from different tables or passages of the source.

Series [1] has as its system Candida albicans ATCC strain 14053. The experiment in a line: survival of Candida albicans in antifungal cocktails (membrane filtration enumeration). Type of series: cell-based. The conditions noted are these: Example 14; for fungicidal activity (in words): Tube B, fluconazole 100 μg/ml, amphotericin B 0.6 μg/ml, or fluconazole 100 + amphotericin B 0.3 μg/ml; for surviving yeast, Tube B: Tube B (734 CFU/ml at time zero), 35° C. On the procedure: The Candida albicans used in these studies was ATCC strain 14053 (American Type Culture Collection). The purity of the strain was verified before and after cultivation.
The test organism was cultured on a Sabouraud Agar Plate, streaked for isolation, and incubated at 35° C. for 24 hours. A single colony was removed using a sterile cotton swab and placed in 5.0 ml of sterile saline. The mixture was vortexed, and dilutions were made and compared to a standard turbidity chart until the turbidity matched a 0.5 turbidity standard (a 0.5 MacFarland turbidity standard suspension). Serial dilutions were made as follows: (1) 0.5 ml of the 0.5 MacFarland turbidity standard was added to 4.5 ml of sterile normal saline (Tube A; expected population 10^5 cfu/ml); (2) 0.1 ml of the Tube A suspension was added to 9.9 ml of sterile normal saline (Tube B; expected population 10^3 cfu/ml); and (3) 0.1 ml of the Tube B suspension was added to 9.9 ml of sterile normal saline (Tube C; expected population 10 cfu/ml). Each serial dilution was vortexed for 30 seconds before the next transfer.
Tubes B and C were challenged with these cocktails. Each cocktail (24.0 ml) was placed into a sterile 115 ml plastic cup, and 1.0 ml of the yeast population from Tube B or C was added. The cups were mixed gently, capped and placed in the incubator for 24 hours at 35° C. After the prescribed incubation period, 1.0 ml of the yeast-cocktail mixture was removed from each tube and processed to obtain an enumeration of the surviving yeast organisms. The remaining mixture was placed back into the incubator and incubated for an additional 24 hours. After this incubation period, the cups were removed, swirled gently and 1.0 ml was removed, and the above process was repeated.
Enumeration of the yeast was performed as follows; each sample was tested in duplicate, One milliliter (1.0 ml) of year suspension was added to the top assembly of a sterile disposable filter apparatus which contained 99 ml of sterile normal saline. The contents were mixed gently and filtered. The filter pad was removed aseptically using sterile disposable forceps and placed on Sabouraud Agar plates. The plates were incubated at 35° C. for 24 hours, and the colonies were then counted.

Another series relates to yeast isolates. Put plainly: yeast challenge of antibiotic cocktails, overall. Type of series: cell-based. As to conditions: for fungicidal activity (in words): Example 16, ten donor tissue isolates, 24 hours; for antiyeast activity at doses which maintain tissue viability (in words): summary of Examples 14 and 15. The text has this: The ten yeast isolates tested were:

Series [2] relates to valve leaflet fibroblasts. As to conditions: for AVG incorporation of 3H-glycine: Example 10; for percent of control: Example 2.
Protocol: (§1) Preferably, however, the tissue is incubated with a radioactively-labeled amino acid, and the incorporation of the amino acid into proteins is monitored by counting disintegrations per minute (DPM) per unit of tissue.
(§2) All of the valve leaflet halves were incubated for 48 hours at 37° C. in the antibiotic cocktails and then cryopreserved.
(§3) Experiment #2: Paired halves of leaflets were again used. One half was used as a fresh control and immediately labelled with ^3 H-glycine to determine leaflet fibroblast viability (see below). […] The antibiotic-treated leaflets were incubated for 48 hours at 37° C. in the antibiotic cocktails and then cryopreserved.
(§4) A 1.8 ml Nalge cryovial was used to contain the leaflet tissue. The freezing program takes the tissue from +4° to -80° C. in approx 80 to 90 minutes.
(§5) The valve leaflet halves were stored in liquid nitrogen freezer for at least two days, but no more than three weeks, before being thawed.
(§6) The valve leaflet halves were thawed by removing the valve tissue to be thawed from the liquid nitrogen freezer. As quickly as possible, the tissue was transferred to a 37° C. waterbath. When all of the ice had dissolved (about 2 minutes), the cryovial was transferred to a hood, and 4 ml of room temperature lactated Ringers plus 5% dextrose (DBLR) was dispensed into a 5-ml snap-cap tube (Falcon) for each cryovial being thawed. The exterior of the cryovial was rinsed with 70% isopropanol and any excess wiped away before opening. Using sterile forceps, the leaflet tissue was transferred into the tube containing the DBLR. The tissue was allowed to remain in D5LR for 5 minutes.
(§7) Tissue viability was assessed by the measurement of ^3 H-glycine incorporation into proteins as follows. The thawed valve leaflet halves were placed in snap-cap tubes (Falcon) containing 16 μCi of tritiated-glycine (DuPont New England Nuclear) in 1 ml of DMEM supplemented with 15 μg/ml ascorbic acid. Radiolabeled glycine incorporation was determined after a 48 hour incubation at 37° C. in an atmosphere consisting of 5% carbon dioxide in air. The tissue was then washed four times with phosphate-buffered saline, dehydrated with ethanol and ether, air dried and weighed. The tissue samples were then rehydrated with 200 μl of water and solubilized by the addition of 500 μl of 1M NaOH. After incubation at 60° C. for 1 hour, the samples were sonicated twice for 20-seconds. […] The filter discs were dried, and the proteins precipitated by addition of ice-cold 10% trichloroacetic acid for 30 minutes. This was followed by five ethanol rinses, two ether rinses, and drying. The discs were then placed in 10 ml of scintillation fluid (Cytoscint ES, ICN Biomedicals, Inc., Irvine, Calif.). Tritium incorporation was measured by scintillation counting using a LS1701 (Beckman Instruments, Inc., Palo Alto, Calif.).
(§8) The incorporation of ^3 H-glycine into proteins is expressed in disintegrations per minute (DPM) per mg of dry tissue.
In series [3] the test system is cells responsible for allograft longevity in patients. As to conditions: literature: Hu et al., Lange and Hopkins, McNally and Brockbank; cited from earlier work.
The subject of the next series is bacteria. The conditions noted are these: general statement; cited from earlier work.
The next series is described as follows: in vitro. As to conditions: human, heart valve leaflets, AVG % CONTRL, Example 3.
Series [4] concerns valve leaflet fibroblasts. The experiment in a line: cells. The conditions noted are these: Homo sapiens, Fibroblast, read-out: AVG percent of control, Example 2.
Protocol: as §1, §2, §3, §4, §5, §6, §7, §8

Protocol for in vitro: as §1, §2, §3, §4, §5, §6, §7, §8

Take `C[C@@H]1[C@H](O)[C@@H](C)/C=C/C=C/C=C/C=C/C=C/C=C/C=C/[C@H](O[C@@H]2O[C@H](C)[C@@H](O)[C@H](N)[C@@H]2O)C[C@@H]2O[C@](O)(C[C@@H](O)C[C@@H](O)[C@H](O)CC[C@@H](O)C[C@@H](O)CC(=O)O[C@H]1C)C[C@H](O)[C@H]2C(=O)O` [Amphotericin B, amphotericin B]: the results for the “fungicidal activity (in words)” value (in series [1]; with yeast isolates) were “fungicidal” and “shows greater fungicidal activity”, respectively. Also, the “antiyeast activity at doses which maintain tissue viability (in words)” value with yeast isolates is reported as “Neither amphotericin B, nor fluconazole, alone substantially inhibits yeast growth at doses which substantially maintain tissue viability”. The “average viability (in words)” value in series [2] (Example 5, 0.3 μg/ml amphotericin B in the antibiotic mixture) was “average viability greater than the control”. The “MEAN incorporation of 3H-glycine” value is reported as 4965 DPM/mg in series [2] (Example 11, 0.3 μg/ml amphotericin B, 24 hours); 4960 DPM/mg in series [2] (Example 11, 0.6 μg/ml amphotericin B, 24 hours); 4914 DPM/mg in series [2] (Example 11, 1.0 μg/ml amphotericin B, 24 hours); 4236 DPM/mg in series [2] (Example 11, 2.0 μg/ml amphotericin B, 24 hours); 4452 DPM/mg in series [2] (Example 11, 3.0 μg/ml amphotericin B, 24 hours). Further, the “toxicity (in words)” value in series [3] is listed as “toxic to the cells responsible for allograft longevity in patients”.

In the case of `OC(Cn1cncn1)(Cn1cncn1)c1ccc(F)cc1F` [Fluconazole, fluconazole], the figures for the “surviving yeast, Tube B” value in series [1] (24 hr) and in series [1] (48 hr) were 31 colonies and 45 colonies, respectively. In addition, the “fungicidal activity (in words)” value in series [1] is “suggests a tolerance or static phenomenon”; with yeast isolates, “did not affect the fungicidal activity greatly”. Further, in the series with yeast isolates, the “antiyeast activity at doses which maintain tissue viability (in words)” value is “Neither amphotericin B, nor fluconazole, alone substantially inhibits yeast growth at doses which substantially maintain tissue viability”. Besides, the “viability after treatment (in words)” value in series [2] (Example 1, 100 μg/ml fluconazole added) is “not harmful to the tissue”.

Consider `C[C@@H](O)[C@H]1C(=O)N2C(C(=O)O)=C(SCCN=CN)C[C@H]12` [Imipenem, imipenem], for which the “MEAN incorporation of 3H-glycine” value worked out at 5269 DPM/mg in series [2] (Example 8, 48 μg/ml imipenem, 24 h); 5316 DPM/mg in series [2] (Example 8, 48 μg/ml imipenem, 48 h); 6897 DPM/mg in series [2] (Example 8, 72 μg/ml imipenem, 24 h); 7198 DPM/mg in series [2] (Example 8, 72 μg/ml imipenem, 48 h); 5885 DPM/mg in series [2] (Example 8, 96 μg/ml imipenem, 24 h); 6526 DPM/mg in series [2] (Example 8, 96 μg/ml imipenem, 48 h). In addition, the “antibacterial activity (in words)” value with bacteria is “active against most aerobic gram-positive and gram-negative bacteria and most anaerobic gram-positive and gram-negative bacteria”. Further, the viability in the series “in vitro” (12 μg/ml imipenem + rifampin 10 μg/ml) turned out to be 86%; in “in vitro” (24 μg/ml imipenem + rifampin 10 μg/ml), 90%; in the series “in vitro” (48 μg/ml imipenem + rifampin 10 μg/ml) it was 104%.

With `CCN[C@@H]1C[C@H](N)[C@@H](O[C@H]2OC(CN)=CC[C@H]2N)[C@H](O)[C@H]1O[C@H]1OC[C@](C)(O)[C@H](NC)[C@H]1O` [Netilmicin, netilmicin], in the series on yeast isolates, the “fungicidal activity (in words)” value is “did not have any adverse effects on the fungicidal activity of fluoconazole and amphotericin B”. In addition, the “AVG incorporation of 3H-glycine” value was determined as 4213 DPM/mg in series [2] (20 μg/ml netilmicin, 24 hours); 6805 DPM/mg in series [2] (30 μg/ml netilmicin, 24 hours); 5815 DPM/mg in series [2] (50 μg/ml netilmicin, 24 hours). Further, the “antibacterial activity (in words)” value with bacteria is “effective against many aerobic gram-negative bacteria and some aerobic gram-positive bacteria”. The “lack of antibacterial activity (in words)” value in the series on bacteria was “inactive against most streptococci and most anaerobic bacteria”.

Take `CO[C@H]1/C=C/O[C@@]2(C)Oc3c(C)c(O)c4c(O)c(c(/C=N/N5CCN(C)CC5)c(O)c4c3C2=O)NC(=O)/C(C)=C\C=C\[C@H](C)[C@H](O)[C@@H](C)[C@@H](O)[C@@H](C)[C@H](OC(C)=O)[C@@H]1C` [Rifampin, rifampin]: the percent of control in series [2] (10 μg/ml rifampin) is 96% and 110% and 91% and 75% and 73% and 114%; in series [2] (30 μg/ml rifampin), 94%. In series [4] (10 μg/ml rifampin), the activity at 10 µg/mL is 93%. In addition, the activity at 30 µg/mL in series [4] (30 μg/ml rifampin) was 80%. Further, the activity at 100 µg/mL in series [4] (100 μg/ml rifampin) was 42%.

`CN[C@H](CC(C)C)C(=O)N[C@H]1C(=O)N[C@@H](CC(N)=O)C(=O)N[C@H]2C(=O)N[C@H]3C(=O)N[C@H](C(=O)N[C@H](C(=O)O)c4cc(O)cc(O)c4-c4cc3ccc4O)[C@H](O)c3ccc(c(Cl)c3)Oc3cc2cc(c3O[C@@H]2O[C@H](CO)[C@@H](O)[C@H](O)[C@H]2O[C@H]2C[C@](C)(N)[C@H](O)[C@H](C)O2)Oc2ccc(cc2Cl)[C@H]1O` [Vancomycin, vancomycin]: in the series on bacteria, the “antibacterial activity (in words)” value is “active against many gram-positive organisms, including staphylococci, streptococci, enterococci, Clostridium and Corynebacterium”; the “lack of antibacterial activity (in words)” value was “inactive against gram-negative bacteria”.
